Measurements from patent US10946028B2, “Polymer conjugate of sulfoxide derivative-coordinated platinum(II) complex” (priority 2015, dated 2021).
Where “and” joins values, the source holds several entries; their conditions need not be identical. Equal values may be shown once. Read-outs that look alike come from different tables or passages of the source.

Columns and labels:
[1] = tested on: Human gastric cancer 4-1ST; experiment: Antitumor Test 1, human gastric cancer 4-1ST-transplanted mouse; assay type: in vivo, BALB/cA-nu/nu mice
Source text: (§1) Human gastric cancer 4-1ST was subcultured and maintained subcutaneously in BALB/cA-nu/nu mice (hereinafter, nude mice). Human gastric cancer 4-1ST was purchased from Central Institute for Experimental Animals.
(§2) Human gastric cancer 4-1ST was collected from the subcutaneous sites of nude mice, and the tumors were finely cut into blocks each measuring about 3 mm on one side. The tumor blocks thus obtained were transplanted subcutaneously into the dorsal side of nude mice using a trocar. On the 18th day after transplantation, when the average tumor volume reached about 100 to 200 mm^3, various drugs were intravenously administered through the caudal vein. […] As control drugs, 1-OHP was administered once at a dose of 20 mg/kg, and cisplatin was administered once at a dose of 10 mg/kg. Regarding the amounts of administration of 1-OHP and cisplatin, and the high amounts of administration of the various Example compounds, the maximum tolerable dose (MTD dose) was employed in all cases.
After the administration of the various drugs, the major axes (L) and the minor axes (W) of the tumors were measured over time using calipers, and the tumor volumes (L×W×W×0.5) were calculated. The test was carried out using four animals per group in all cases for a non-administered group and various drug-administered groups. For a period starting from the initiation of administration to the 20th day after administration, the relative tumor volume (T/C (%)) of each of the drug-administered groups was calculated by the following formula, based on the relative tumor volume of the non-administered group as 100, as an index of the antitumor effect. T/C (%)=Relative tumor volume of administered group/relative tumor volume of non-administered group×100 Formula: […]

[2] = tested on: Human gastric cancer 4-1ST; experiment: Antitumor Test 3, human gastric cancer 4-1ST-transplanted mouse; assay type: in vivo, BALB/cA-nu/nu mice
Source text: as §1
Human gastric cancer 4-1ST was collected from subcutaneous sites of nude mice, and the tumors were finely cut into blocks each measuring about 3 mm on one side. The tumor blocks thus obtained were transplanted subcutaneously into the dorsal side of nude mice using a trocar. On the 17th day after transplantation, when the average tumor volume reached about 100 to 200 mm^3, various drugs were intravenously administered through the caudal vein. […] As a control drug, 1-OHP or cisplatin (CDDP) was administered once at a dose of 18 mg/kg or 10 mg/kg. Regarding the high amounts of administration of the administered compounds, the maximum tolerable dose (MTD dose) was employed in all cases. After the administration of the various drugs, the major axes (L) and the minor axes (W) of the tumors were measured over time using calipers, and the tumor volumes (L×W×W×0.5) were calculated. The test was carried out using four animals per group in all cases for a non-administered group and various drug-administered groups. For a period starting from the initiation of administration to the 21st day after administration, the T/C (%) values of the various drug-administered groups are presented in Table 5.

[3] = Maximum tolerable dose (MTD dose) in the antitumor tests; assay type: in vivo, BALB/cA-nu/nu mice; details: administered once intravenously, nude mice
Protocol: as §2, with “Regarding the amounts of administration of 1-OHP and cisplatin, and the high amounts of administration of the various Example compounds, the maximum tolerable dose (MTD dose) was employed in all cases.” left out
(§3) Human gastric cancer 4-1ST was collected from subcutaneous sites of nude mice, and the tumors were finely cut into blocks each measuring about 3 mm on one side. […] After the administration of the various drugs, the major axes (L) and the minor axes (W) of the tumors were measured over time using calipers, and the tumor volumes (L×W×W×0.5) were calculated. […]
as §3

DAN-G cells = experiment: Proliferation inhibition test, concentration/time dependency; assay type: cell-based, Human
Protocol: Human pancreatic cancer cell line, DAN-G, was purchased from Asta Medica GmbH, and the cells were proliferated and subcultured in a recommended medium described in the pamphlet.
For DAN-G cells that had been cultured and proliferated on a 10 cm dish for cell culture, the culture fluid was removed, and the cells were washed once with 5 ml of PBS (phosphate buffered physiological saline). Subsequently, 1 ml of 0.25% trypsin/0.05% EDTA (ethylenediaminetetraacetic acid)/PBS was added to the cells, and the mixture was left to stand for 5 minutes at 37° C. After it was confirmed that the cells had been detached from the dish, 9 ml of medium was added to the dish to disperse the cells, the dispersion was transferred into a 15 ml tube (Corning, Inc.), and the dispersion was centrifuged for 5 minutes at 1,000 rpm. A supernatant was removed, subsequently 10 ml of fresh medium was added to the tube, and the cells were suspended. A portion of the cells was stained with Trypan Blue, and the viable cell count was measured using a hemocytometer. The suspended cells were diluted with medium to a concentration of 2.6×10^4 cells/ml, and the cells were inoculated onto five sheets of 96 well plate (Plates A, B, C, D, and E) at a volume of 190 μl/well (5×10^3 cells/well).
The cells were then cultured under the conditions of 37° C. and 5% CO2. Three replica wells were provided for each drug concentration.
A test was performed under five different conditions by changing the drug addition time.
For Plates A, B, C, D, and E that had been cultured for 72 hours as described above, the medium was removed, subsequently methanol was added to the plates, and the cells were thereby immobilized on the plates. After methanol was removed, a 0.05% Methylene Blue solution was added to the plate, and the cells were stained for 30 minutes. Methylene Blue was removed, any excess stain solution was washed with water, subsequently 3% hydrochloric acid was added to the plate at a volume of 200 μl/well, and thus Methylene Blue was extracted. The plates were left to stand for 2 hours or longer, and the absorbance at 660 nm was measured using a microplate reader (BENCHMARK PLUS, manufactured by Bio-Rad Laboratories, Inc.). Regarding the measured values, the average value of three replicas of a well for each drug concentration was taken. The proliferation inhibition ratio GI(x) % at a drug concentration x was calculated by the following formula from the absorbance values thus measured. GI(x)%=(1−(Ax−B)/(A0−B))×100

[4] = tested on: Human gastric cancer 4-1ST; experiment: Antitumor Test 2, human gastric cancer 4-1ST-transplanted mouse; assay type: in vivo, BALB/cA-nu/nu mice; details: 18 mg/kg once i.v.
Source text: as §1
Human gastric cancer 4-1ST was collected from subcutaneous sites of nude mice, and the tumors were finely cut into blocks each measuring about 3 mm on one side. The tumor blocks thus obtained were transplanted subcutaneously into the dorsal side of nude mice using a trocar. On the 18th day after transplantation, when the average tumor volume reached about 100 to 200 mm^3, various drugs were intravenously administered through the caudal vein. […] As a control drug, 1-OHP was administered once at a dose of 18 mg/kg. […] Regarding Example 3 compound, the dose was less than or equal to the MTD dose; however, the dissolution limit of the compound was administered. After the administration of the various drugs, the major axes (L) and the minor axes (W) of the tumors were measured over time using calipers, and the tumor volumes (L×W×W×0.5) were calculated. The test was carried out using four animals per group in all cases for a non-administered group and various drug-administered groups. For a period starting from the initiation of administration to the 21st day after administration, the T/C (%) values of the various drug-administered groups are presented in Table 4.

[5] = Body weight change in Antitumor Test 3; assay type: in vivo; details: 18 mg/kg once i.v., body weight on day of initiation = 1
Source text: Human gastric cancer 4-1ST was collected from subcutaneous sites of nude mice, and the tumors were finely cut into blocks each measuring about 3 mm on one side. The tumor blocks thus obtained were transplanted subcutaneously into the dorsal side of nude mice using a trocar. On the 17th day after transplantation, when the average tumor volume reached about 100 to 200 mm^3, various drugs were intravenously administered through the caudal vein. […] Regarding the high amounts of administration of the administered compounds, the maximum tolerable dose (MTD dose) was employed in all cases. After the administration of the various drugs, the major axes (L) and the minor axes (W) of the tumors were measured over time using calipers, and the tumor volumes (L×W×W×0.5) were calculated. The test was carried out using four animals per group in all cases for a non-administered group and various drug-administered groups.
After the administration, the body weights of the mice were measured over time.

N.N.[Cl][Pt][Cl] [Cisplatin, cisplatin]
T/C (%) on days after each administration ([1]; 10 mg/kg once i.v., day 0): 100% | T/C (%) on days after each administration ([1]; 10 mg/kg once i.v., day 3): 91% | T/C (%) on days after each administration ([1]; 10 mg/kg once i.v., day 6): 49% | T/C (%) on days after each administration ([1]; 10 mg/kg once i.v., day 9): 32% | T/C (%) on days after each administration ([1]; 10 mg/kg once i.v., day 13): 31% | T/C (%) on days after each administration ([1]; 10 mg/kg once i.v., day 16): 35% | T/C (%) on days after each administration ([1]; 10 mg/kg once i.v., day 20): 36% | T/C (%) on days after each administration ([2]; 10 mg/kg once i.v., day 0): 100% | T/C (%) on days after each administration ([2]; 10 mg/kg once i.v., day 4): 77% | T/C (%) on days after each administration ([2]; 10 mg/kg once i.v., day 7): 43% | T/C (%) on days after each administration ([2]; 10 mg/kg once i.v., day 11): 32% | T/C (%) on days after each administration ([2]; 10 mg/kg once i.v., day 14): 36% | T/C (%) on days after each administration ([2]; 10 mg/kg once i.v., day 18): 37% | T/C (%) on days after each administration ([2]; 10 mg/kg once i.v., day 21): 42% | Maximum tolerable dose (MTD dose) [3]: 10 mg/kg

O=C1[O][Pt]2([NH][C@@H]3CCCC[C@H]3[NH]2)[O]C1=O [l-OHP, Oxaliplatin]
IC50 (DAN-G cells; drug exposure 6 hours, 72 hours total culture, concentration in terms of DACH-platin, read-out: IC50, 6 hours): 9000 nM | IC50 (DAN-G cells; drug exposure 24 hours, 72 hours total culture, concentration in terms of DACH-platin, read-out: IC50, 24 hours): 1800 nM | IC50 (DAN-G cells; drug exposure 48 hours, 72 hours total culture, concentration in terms of DACH-platin, read-out: IC50, 48 hours): 900 nM | IC50 (DAN-G cells; drug exposure 72 hours, concentration in terms of DACH-platin, read-out: IC50, 72 hours): 900 nM | IC50 (6 hours)/IC50 (72 hours) (DAN-G cells; ratio of IC50 values): 10.0 | IC50 (DAN-G cells; read-out: IC50, 2 hour, drug exposure 2 hours, 72 hours total culture, concentration in terms of DACH-platin): 44100 nM | T/C (%) on days after each administration ([4]; day 0): 100% | T/C (%) on days after each administration ([4]; day 3): 100% | T/C (%) on days after each administration ([4]; day 7): 65% | T/C (%) on days after each administration ([4]; day 10): 58% | T/C (%) on days after each administration ([4]; day 14): 57% | T/C (%) on days after each administration ([4]; day 17): 61% | T/C (%) on days after each administration ([4]; day 21): 60% | Relative body weight on days after administration ([5]; day 0): 1.00 | Relative body weight on days after administration ([5]; day 4): 0.78 | Relative body weight on days after administration ([5]; day 7): 0.83 | Relative body weight on days after administration ([5]; day 11): 0.93 | Relative body weight on days after administration ([5]; day 14): 1.03 | Relative body weight on days after administration ([5]; day 18): 1.09 | Relative body weight on days after administration ([5]; day 21): 1.05 | T/C (%) on days after each administration ([1]; 20 mg/kg once i.v., day 0): 100% | T/C (%) on days after each administration ([1]; 20 mg/kg once i.v., day 3): 96% | T/C (%) on days after each administration ([1]; 20 mg/kg once i.v., day 6): 53% | T/C (%) on days after each administration ([1]; 20 mg/kg once i.v., day 9): 46% | T/C (%) on days after each administration ([1]; 20 mg/kg once i.v., day 13): 46% | T/C (%) on days after each administration ([1]; 20 mg/kg once i.v., day 16): 51% | T/C (%) on days after each administration ([1]; 20 mg/kg once i.v., day 20): 50% | T/C (%) on days after each administration ([2]; 18 mg/kg once i.v., day 0): 100% | T/C (%) on days after each administration ([2]; 18 mg/kg once i.v., day 4): 84% | T/C (%) on days after each administration ([2]; 18 mg/kg once i.v., day 7): 52% | T/C (%) on days after each administration ([2]; 18 mg/kg once i.v., day 11): 50% | T/C (%) on days after each administration ([2]; 18 mg/kg once i.v., day 14): 50% | T/C (%) on days after each administration ([2]; 18 mg/kg once i.v., day 18): 60% | T/C (%) on days after each administration ([2]; 18 mg/kg once i.v., day 21): 57% | Maximum tolerable dose (MTD dose) ([3]; listed as 1-OHP): 20 mg/kg and 18 mg/kg
